The results in this text go back to ChEMBL document CHEMBL1201862, “PubChem BioAssay data set” (2004).

SMILES strings stand for the structures.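 All cell lines were grown in 96-well plates and treated with compound for 48 hours. Abbreviation: GI50, concentration required for 50% inhibition of growth.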 Active and inactive are the calls of the source. Rule as the data show it: active = GI50 up to about 1.1 µM and inactive = higher.

Test systems include DU-145; HCC 2998; HCT-15; IGROV-1; M14; MCF7; Malme-3M; NCI-H522; NCI/ADR-RES; OVCAR-5; OVCAR-8; SF-268; SK-MEL-5; SN12C; SW-620; T47D; UACC-62; UO-31; SK-OV-3.
Common to all, as to experiment: NCI tumour cell line growth inhibition, 48 h

On to `COc1c2c(cc3oc(C)cc(=O)c13)OC(=N)C(C(N)=O)C2CC(=O)c1ccc(N)cc1` (stereo unspecified), for which the GI50 in the assay on DU-145 was > 100 µM (inactive); in the assay with HCC 2998, > 100 µM (inactive); in the assay with HCT-15, more than 100 µM; with IGROV-1 it was > 100 µM (inactive); with M14, > 100 µM (inactive); in the assay with MCF7, > 100 µM (inactive). Moreover, the GI50 with Malme-3M, in the assay with NCI-H522, in the assay with NCI/ADR-RES, in the assay with OVCAR-5, with OVCAR-8 and with SF-268 was > 100 µM (inactive) each time. Further, the GI50 with SK-MEL-5, in the assay on SN12C, in the assay on SW-620, in the assay with T47D, with UACC-62 and with UO-31 was > 100 µM (inactive) each time.
Turning to `CC(=O)Nc1ccc(COC(O)CN2CCCCC2)cc1[N+](=O)[O-]` (stereo unspecified), the GI50 in the assay on DU-145 is > 100 µM (inactive); in the assay with HCC 2998 it was > 100 µM (inactive); in the assay with HCT-15, more than 100 µM; with IGROV-1, > 100 µM (inactive); with M14, > 100 µM (inactive); in the assay on MCF7, > 100 µM (inactive). Also, the GI50 in the assay with Malme-3M, in the assay with NCI-H522, in the assay with NCI/ADR-RES, in the assay with OVCAR-5, with OVCAR-8 and in the assay with SF-268 was > 100 µM (inactive) each time. Moreover, the GI50 in the assay with SK-MEL-5, in the assay on SN12C, in the assay on SW-620, in the assay on T47D, in the assay with UACC-62 and with UO-31 was > 100 µM (inactive) in each case.
For `CN(C)/C=C(\C(=O)c1ccccc1)n1nc(-c2ccccc2)cc1-c1ccccc1`, the GI50 in the assay on DU-145 is > 10 µM (inactive); with HCC 2998, > 10 µM (inactive); with HCT-15, more than 10 µM; with IGROV-1, > 10 µM (inactive); in the assay on M14 it was > 10 µM (inactive); in the assay on MCF7, > 10 µM (inactive). Further, the GI50 in the assay on Malme-3M, in the assay on NCI-H522, in the assay with NCI/ADR-RES, with OVCAR-5, in the assay with OVCAR-8 and with SF-268 was > 10 µM (inactive) in each case. For the same compound, the GI50 in the assay on SK-MEL-5, with SK-OV-3, in the assay on SN12C, in the assay on SW-620, in the assay on T47D and in the assay with UACC-62 was > 10 µM (inactive) throughout.
With `Cc1cccc(-c2nc(-c3cnccn3)n(Cc3ccccc3)n2)c1`, the GI50 in the assay with DU-145 was > 100 µM (inactive); in the assay on HCC 2998, > 100 µM (inactive); in the assay with HCT-15, more than 100 µM; with IGROV-1, > 100 µM (inactive); in the assay with M14, > 100 µM (inactive); in the assay on MCF7, > 100 µM (inactive). Also, the GI50 was > 100 µM (inactive) with NCI-H522; > 100 µM (inactive) in the assay on NCI/ADR-RES; > 100 µM (inactive) in the assay with OVCAR-5; 99.1 µM (inactive) in the assay on OVCAR-8; > 100 µM (inactive) in the assay on SF-268; > 100 µM (inactive) in the assay with SK-MEL-5. Moreover, the GI50 was 65.6 µM (inactive) in the assay with SK-OV-3; > 100 µM (inactive) with SN12C; > 100 µM (inactive) in the assay on SW-620; 90.6 µM (inactive) with T47D; 70.8 µM (inactive) with UACC-62; > 100 µM (inactive) in the assay with UO-31.
For `C/C(=N\NC(N)=O)C(CN(C)C)C(c1ccccc1)c1c(O)c2ccccc2oc1=O` (stereo unspecified), the GI50 in the assay with DU-145 was > 100 µM (inactive); with HCC 2998, > 100 µM (inactive); in the assay with HCT-15 it was more than 100 µM; with IGROV-1, > 100 µM (inactive); with M14 it was > 100 µM (inactive); in the assay with MCF7 it was > 100 µM (inactive). Also, the GI50 in the assay with Malme-3M was 42.4 µM (inactive); in the assay on NCI-H522, > 100 µM (inactive); with NCI/ADR-RES, > 100 µM (inactive); in the assay on OVCAR-5, > 100 µM (inactive); in the assay on OVCAR-8, > 100 µM (inactive); in the assay on SF-268, > 100 µM (inactive). Also, the GI50 in the assay on SK-MEL-5, in the assay with SN12C, with SW-620, in the assay with T47D, in the assay with UACC-62 and with UO-31 was > 100 µM (inactive) throughout.
As for `O=CNc1ccc2c(c1)C(=O)c1ccccc1-2`, the GI50 was 57.8 µM (inactive) with DU-145; > 100 µM (inactive) with HCC 2998; 59.7 µM in the assay with HCT-15; 44.1 µM (inactive) in the assay on IGROV-1; > 100 µM (inactive) with M14; 20.8 µM (inactive) in the assay with MCF7. The GI50 in the assay on NCI-H522 was 60.3 µM (inactive); in the assay on NCI/ADR-RES, > 100 µM (inactive); in the assay with OVCAR-5, > 100 µM (inactive); in the assay with OVCAR-8, 50.9 µM (inactive); in the assay with SF-268, 47.3 µM (inactive); in the assay with SK-MEL-5, > 100 µM (inactive). For the same compound, the GI50 was > 100 µM (inactive) with SK-OV-3; 30.3 µM (inactive) with SN12C; 49.3 µM (inactive) in the assay on SW-620; 76.9 µM (inactive) in the assay with T47D; 49.9 µM (inactive) in the assay with UACC-62; 47.3 µM (inactive) in the assay on UO-31.
Turning to `CCC(=O)c1ccc2[nH]c3c(C)c4c(O)cc(C)nc4c(C)c3c2c1`, the GI50 in the assay with DU-145 is > 100 µM (inactive); with HCC 2998, > 100 µM (inactive); with HCT-15, more than 100 µM; in the assay with IGROV-1, > 100 µM (inactive); in the assay on M14 it was > 100 µM (inactive); in the assay with MCF7, > 100 µM (inactive). The GI50 in the assay on Malme-3M, with NCI-H522, in the assay on NCI/ADR-RES, with OVCAR-5, in the assay with OVCAR-8 and in the assay on SF-268 was > 100 µM (inactive) in each case. Moreover, the GI50 in the assay on SK-MEL-5, in the assay on SW-620, in the assay with T47D and with UO-31 was > 100 µM (inactive) throughout.
`COC(=O)CCc1ccc(CCC(=O)OC)cc1`: the GI50 is > 100 µM (inactive) in the assay on DU-145; > 100 µM (inactive) with HCC 2998; more than 100 µM in the assay on HCT-15; > 100 µM (inactive) in the assay on IGROV-1; > 100 µM (inactive) in the assay on M14; > 100 µM (inactive) in the assay on MCF7. The GI50 in the assay on Malme-3M, with NCI-H522, with NCI/ADR-RES, in the assay on OVCAR-5, in the assay with OVCAR-8 and in the assay with SF-268 was > 100 µM (inactive) throughout. Moreover, the GI50 in the assay with SK-MEL-5, in the assay on SK-OV-3, with SW-620, with T47D and in the assay on UO-31 was > 100 µM (inactive) each time.
